Source: PMC12728205, “The solute-binding proteins DppA1–5 of Pseudomonas aeruginosa have distinct substrate profiles” (Scientific Reports, 2025)
Peptide text beside a SMILES is read from it.

Target: T1, DppA1 (Pseudomonas aeruginosa, UniProt A0A0H2ZGV2)
T1 construct: C-terminal TwinStrepTag, codon-optimized gene, periplasmic expression in E. coli BL21 (pET22b), StrepTrap purified
Assay: differential scanning fluorimetry (SYPRO Orange)
Format: binding
Settings: 10 µM protein, 250 µM peptide, PBS

T1 sequence (A0A0H2ZGV2 30-537): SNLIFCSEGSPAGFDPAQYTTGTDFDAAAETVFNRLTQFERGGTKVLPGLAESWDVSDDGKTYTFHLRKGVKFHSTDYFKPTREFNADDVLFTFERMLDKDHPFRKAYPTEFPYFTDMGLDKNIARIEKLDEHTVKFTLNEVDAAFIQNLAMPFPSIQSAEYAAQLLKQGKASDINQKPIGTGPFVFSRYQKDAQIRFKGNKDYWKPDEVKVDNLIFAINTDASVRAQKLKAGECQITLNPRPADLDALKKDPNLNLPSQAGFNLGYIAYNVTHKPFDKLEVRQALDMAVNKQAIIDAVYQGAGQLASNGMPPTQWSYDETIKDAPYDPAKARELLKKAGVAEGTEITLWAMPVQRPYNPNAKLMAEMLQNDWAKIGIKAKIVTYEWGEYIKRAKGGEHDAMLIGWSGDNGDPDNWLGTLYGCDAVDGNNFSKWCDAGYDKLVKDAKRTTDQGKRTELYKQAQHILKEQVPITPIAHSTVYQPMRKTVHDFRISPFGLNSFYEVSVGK

## C[C@H](N)C(=O)NCC(=O)O [Ala-Gly] (H-Ala-Gly-OH)
  ΔTm: 8.6 °C
